Data reported in ChEMBL document CHEMBL3272260, “Metabolic and photochemical hydroxylation of 5-nitro-2-furancarboxaldehyde derivatives” (J Med Chem, 1976).

Assays:
[1] = Half life of the compound under in-vacuo condition; format: physicochemical
[2] = Half life of the compound under atmospheric pressure condition; format: physicochemical
[3] = Chemical stability of the compound; format: physicochemical
[4] = Drug metabolism in rat urine treated with nitrofurantoin at 100 mg/kg, po measured up to 6 hrs by UV-spectroscopic analysis; format: ADME, organism-based; parameters: dose 100 mg/kg, route oral; conditions: in vivo
[5] = Drug metabolism in rat urine treated with nitrofurantoin at 100 mg/kg, po measured up to 6 hrs by NMR-spectroscopic analysis; format: ADME, organism-based; parameters: dose 100 mg/kg, route oral; conditions: in vivo
[6] = Drug metabolism in rat urine treated with nitrofurantoin at 100 mg/kg, po measured up to 6 hrs by IR-spectroscopic analysis; format: ADME, organism-based; parameters: dose 100 mg/kg, route oral; conditions: in vivo
[7] = Dissociation constant, pKa of the compound by potentiometric titration analysis; format: physicochemical
[8] = Half life of the compound in 0.1% aqueous solution; format: physicochemical

Question: Which results are given for `O.O=C1OCCN1/N=C/c1cc(O)c([N+](=O)[O-])o1`?
Answer: half-life [1]: > 624 h; half-life [2]: 120 h

Question: With `O=C1C=C(/C=N/N2CCOC2=O)OC1=[N+]([O-])[O-].[K+]` as the compound, how does the Stability [3] read?
Answer: Stable

Question: For `O.O=C1CN(/N=C/C2=CC(=O)C(=[N+]([O-])[O-])O2)C(=O)N1.[K+]`, which Drug metabolism [4] is on record?
Answer: metabolite_detected

Question: And the Stability [3]?
Answer: Stable

Question: What about the Drug metabolism [5] of the same compound?
Answer: metabolite_detected

Question: And the Drug metabolism [6]?
Answer: metabolite_detected

Question: Which results are given for `O.O.O=C1OCCN1/N=C/c1cc(O)c([N+](=O)[O-])o1`?
Answer: pKa [7]: 2.7; half-life at 0.1 % [8]: 48 h
